Experimental data from patent EP0243336A1, “Pharmaceutical compositions for the treatment of intermittent claudication” (U C B, S.A., priority 1986, dated 1987).

Legend:
[1] = test system: patients présentant une artériopathie oblitérante périphérique aux stades cliniques IIa et IIb; assay: Clinical trial: pain-free walking distance on treadmill before and after six weeks of isovolemic then hypervolemic hemodilution; assay type: in vivo
Excerpt: Cet exemple décrit un essai clinique effectué sur deux groupes A et B de 9 patients présentant une artériopathie oblitérante périphérique aux stades cliniques IIa et IIb. Tous ces patients présentaient des oblitérations d'un ou plusieurs jours ou des microangiopathies des membres inférieurs. En outre, la fluidité du sang de ces patients était trés limitée.
Les patients du groupe A (âge moyen: 60 ans) reçoivent un traitement combiné par dilution isovolémique et dilution hypervolémique au moyen de HES 200 (poids moléculaire 200.000) et de piracétam.
A cet effet, en 4 à 5 séances, on prélève chaque fois 500 ml de sang que l'on remplace par une perfusion isovolémique de 500 ml d'une solution aqueuse stérile à 10% de HES 200 contenant 12 g de piracétam. Le rapport en poids entre le HES 200 et le piracétam est donc de 4,1 : 1.
Entre chaque séance de perfusion isovolémique s'écoule un intervalle de 2 à 3 jours pendant lequel les patients reçoivent 12 g de piracétam par jour sous forme d'une suspension buvable.
Ensuite, on administre trois fois par semaine, en perfusion hypervolémique, 500 ml de la solution à 10% de HES 200 contenant 12 g de piracétam.
Le groupe B constitue le groupe témoin et les patients de ce groupe (âge moyen: 60 ans) reçoivent le même traitement, mais sans addition de piracétam.

[2] = test system: patients présentant une artériopathie oblitérante périphérique aux stades cliniques IIa et IIb; assay: Clinical trial: hemorheological parameters (blood fluidity, erythrocyte aggregation); assay type: in vivo; conditions: after treatment; piracétam given together with HES 200
Excerpt: Parallèlement au traitement, on a déterminé avant et après celui-ci la fluidité du sang des patients étudiés.
Cet exemple décrit un essai clinique effectué sur deux groupes A et B de 9 patients présentant une artériopathie oblitérante périphérique aux stades cliniques IIa et IIb. […] En outre, la fluidité du sang de ces patients était trés limitée.
Dans les deux groupes de patients, on a également suivi l'évolution de divers paramètres hémorhéologiques.

Compound: NC(=O)CN1CCCC1=O [piracétam, 2-oxo-1-pyrrolidineacétamide]
- temps de claudication et douleurs ([1]; 12 g piracétam added to 500 ml of 10% HES 200): nette diminution
- distance moyenne de marche sans douleur ([1]; 12 g piracétam added to 500 ml of 10% HES 200, versus the same without piracétam): augmente de manière trés significative
- fluidité du sang [2]: la meilleure
